What is called IC50 is the concentration that inhibits the measured activity by half. In general, GI50 refers to the concentration giving 50% growth inhibition.

One experiment deals with MLL1-WDR5 PPI (Homo sapiens (Human), UniProt P61964). In words: fluorescent probe assay of MLL1-WDR5 protein-protein interaction inhibition. It counts as binding. As to conditions: fluorescent probe based on MLL1 peptide, incubation 0.5 hrs, read-out: MLL1-WDR5 PPI inhibiting activity IC50. On the procedure:
In the present disclosure, a fluorescent molecular probe was constructed based on a MLL1 peptide fragment binding to WDR5, for use as a method for study on an aniline compound interfering with WDR5 protein-protein interaction, to determine an inhibition rate of the aniline compound at various concentrations, and then compute the IC50 value. Specific experimental steps: 20 μL of WDR5 protein, 20 μL of a fluorescent probe, and 20 μL of a compound of different concentration gradients were added to a 384-well plate respectively. After incubation for 0.5 hrs, the fluorescence was read on a multifunctional microplate reader at an excitation wavelength of 485 nm and an emission wavelength of 535 nm, to compute the mP value. The inhibition rate was computed as per the formula below, and then the IC50 value was computed using GraphPad software.

Experiment [1] has as its system methylation level of H3K4. The experiment in a line: inhibition of the methylation level of H3K4 (methyltransferase activity). Format: biochemical.
In experiment [2] the test system is MV4-11 human acute mononuclear leukemia cells. In words: anti-proliferative activity against leukemia cells MV4-11. It counts as cell-based. The note with it: Homo sapiens, MV4-11, MV4-11 cells; read-out: GI50 (MV-411). From the text:
(§1) Some compounds of the present disclosure have also been tested for the antiproliferative activity against leukemia cells.

For experiment [3], the system named is Molm-13 human acute myeloid leukemia cells. In words: anti-proliferative activity against leukemia cells Molm-13. The note with it: Homo sapiens, MOLM-13, Molm-13 cells. Format: cell-based.
Text: as §1

With `CN1CCN(c2ccc(-c3ccc(C(=O)NCCN4CCOCC4)cc3)cc2Nc2ncnc(Cl)c2N)CC1` [Example 24, 3″-((5-amino-6-chloropyrimidin-4-yl)amino)-4″-(4-methylpiperazin-1-yl)-N-(2-morpholinoethyl)-[1,1′-biphenyl]-zole-4-carboxamide], the IC50 on MLL1-WDR5 PPI turned out to be 0.183 µM. Also, the “Whether the methylation level of H3K4 was inhibited” value in experiment [1] was “Yes”. Also, the results for the GI50 in experiment [2] and in experiment [3] were 11 µM and 17.6 µM, respectively.

For `CN1CCN(c2cc(F)c(-c3ccc(C(=O)NCCN4CCOCC4)cc3)cc2Nc2ncnc(Cl)c2N)CC1` [Example 68], at MLL1-WDR5 PPI, the IC50 turned out to be 0.074 µM. In experiment [1], the “Whether the methylation level of H3K4 was inhibited” value is reported as “Yes”. Moreover, the GI50 is 27.7 µM in experiment [2] and 23.1 µM in experiment [3].

`CN1CCN(c2ccc(-c3ccc(C(=O)N4CCOCC4)cc3)c(F)c2Nc2ncnc(Cl)c2N)CC1` [Example 55, (3″-((5-amino-6-chloropyrimidin-4-yl)amino)-2′-fluoro-4″-(4-methylpiperazin-1-yl)-[1,1′-biphenyl]-4-yl)(morpholino)methanone]: the IC50 on MLL1-WDR5 PPI came out at 0.117 µM. Besides, the “Whether the methylation level of H3K4 was inhibited” value in experiment [1] was “Yes”. In addition, the GI50 in experiment [2] was 22.5 µM; in experiment [3], 28.9 µM.

For the molecule `CN1CCN(c2ccc(-c3ccc(NC(=O)CN)cc3)c(F)c2Nc2ncnc(Cl)c2N)CC1` [Example 64, 2-amino-N-(3″-((5-amino-6-chloropyrimidin-4-yl)amino)-2′-fluoro-4″-(4-methylpiperazin-1-yl)-[1,1′biphenylyl]-4-yl)acetamide], at MLL1-WDR5 PPI, the IC50 came out at 0.033 µM. Also, the “Whether the methylation level of H3K4 was inhibited” value in experiment [1] is given as “Yes”. The values for the GI50 in experiment [2] and in experiment [3] were 20.4 µM and 28.6 µM, respectively.

Turning to `CN1CCN(c2ccc(-c3ccc(NC(=O)C4CCOCC4)cc3)cc2Nc2ncnc(Cl)c2N)CC1` [Example 33, N-(3″-((5-amino-6-chloropyrimidin-4-yl)amino)-4″-(4-methylpiperazin-1-yl)-[1,1′-biphenyl]-4-yl)tetrahydro-2H-pyran-4-carboxamide], the IC50 on MLL1-WDR5 PPI amounted to 0.489 µM. For the same molecule, the “Whether the methylation level of H3K4 was inhibited” value in experiment [1] is recorded as “Yes”. The GI50 in experiment [2] was found to be 25.9 µM; in experiment [3], 22.7 µM.

In the case of `CN1CCN(c2ccc(-c3ccc(C(=O)NCCCN4CCOCC4)cc3)c(F)c2Nc2ncnc(Cl)c2N)CC1` [Example 57], the IC50 on MLL1-WDR5 PPI turned out to be 0.069 µM. Besides, in experiment [1], the “Whether the methylation level of H3K4 was inhibited” value is listed as “Yes”. The GI50 is 22.3 µM in experiment [2] and 17.6 µM in experiment [3].

Take `CN1CCN(c2ccc(-c3cccc(N)c3)cc2Nc2ncnc(Cl)c2N)CC1` [Example 39, N-(3′-amino-4-(4-methylpiperazin-1-yl)-[1,1′-biphenyl]-3-yl)-6-chloropyrimidine-4,5-diamine]: the IC50 on MLL1-WDR5 PPI came out at 0.675 µM. For the same molecule, in experiment [1], the “Whether the methylation level of H3K4 was inhibited” value is reported as “Yes”. Moreover, the GI50 in experiment [2] came to 32.2 µM; in experiment [3], 28.6 µM.

As for `CN1CCN(c2ccc(-c3ccc(C(=O)NCCCN4CCOCC4)cc3)cc2Nc2ncnc(Cl)c2N)CC1` [Example 25, 3″-((5-amino-6-chloropyrimidin-4-yl)amino)-4″-(4-methylpiperazin-1-yl)-N-(3-morpholinopropyl)-[1,1′-biphenyl]-zole-4-carboxamide], at MLL1-WDR5 PPI, the IC50 came to 0.165 µM. Also, the “Whether the methylation level of H3K4 was inhibited” value in experiment [1] is on record as “Yes”. Besides, the GI50 in experiment [2] is 24.9 µM; in experiment [3], 20.8 µM.

`CN1CCN(c2ccc(-c3ccc(C(=O)NCCN4CCOCC4)cc3)c(F)c2Nc2ncnc(Cl)c2N)CC1` [Example 56]: the IC50 at MLL1-WDR5 PPI amounted to 0.102 µM. For the same molecule, in experiment [1], the “Whether the methylation level of H3K4 was inhibited” value is “Yes”. The GI50 is 9.04 µM in experiment [2] and 8.43 µM in experiment [3].

For `CN1CCN(c2cc(F)c(-c3ccc(C(=O)N4CCC(O)CC4)cc3)cc2Nc2ncnc(Cl)c2N)CC1` [Example 70], the IC50 at MLL1-WDR5 PPI worked out at 0.033 µM. For the same molecule, the “Whether the methylation level of H3K4 was inhibited” value in experiment [1] was “Yes”. Further, the GI50 in experiment [2] came out at 20.2 µM; in experiment [3], 13.2 µM.

For the origin of these results see patent US12453731B2, “Aniline-based WDR5 protein-protein interaction inhibitor, and preparation method and use thereof” (CHINA PHARMACEUTICAL UNIVERSITY, priority 2019, dated 2025).
